Measured values: patent publication US12415844B2, “BCMA specific VCAR compositions and methods for use” (Poseida Therapeutics, Inc., priority 2017, dated 2025)
Where two headings read alike, the source gives them in different places.

Experiments:
[1] = cited from earlier work
cells [2] = details: cited from earlier work
cells [3] = test: AP1903 amount needed in vitro for effective signaling of cells; type: cell-based; details: equates to 10-100 nM
Method: The fixed dose of AP1903 for injection used, for example, may be 0.4 mg/kg intravenously infused over 2 hours. The amount of AP1903 needed in vitro for effective signaling of cells is 10-100 nM (1600 Da MW). This equates to […] or […]. Doses up to 1 mg/kg were well tolerated in the Phase I study of AP1903 described above. Therefore, 0.4 mg/kg may be a safe and effective dose of AP1903 for this Phase I study in combination with the therapeutic cells.

## CC[C@H](C(=O)N1CCCC[C@H]1C(=O)O[C@H](CCc1ccc(OC)c(OC)c1)c1cccc(OCC(=O)NCCNC(=O)COc2cccc([C@@H](CCc3ccc(OC)c(OC)c3)OC(=O)[C@@H]3CCCCN3C(=O)[C@@H](CC)c3cc(OC)c(OC)c(OC)c3)c2)c1)c1cc(OC)c(OC)c(OC)c1 (relative stereo) [AP1903, 2-Piperidinecarboxylic acid, 1-[(2S)-1-oxo-2-(3,4,5-trimethoxyphenyl)butyl]-, 1,2-ethanediylbis[imino(2-oxo-2,1-ethanediyl)oxy-3,1-phenylene[(1R)-3-(3,4-dimethoxyphenyl)propylidene]]ester, [2S-[1(R*),2R*[S*[S*[1(R*),2R*]]]]]-(9C1)]
[1]; 0.01-1.0 mg/kg
  plasma levels versus dose: directly proportional to dose
[1]; 0.5 hours post-dose
  plasma level as % of maximal concentration: approximately 18%
[1]; 2 hours post-dose
  plasma level as % of maximal concentration: ~7%
[1]; 10 hours post-dose
  plasma level as % of maximal concentration: ~1%
[1]; Phase I study
  well tolerated doses: up to 1 mg/kg
[1]; dose levels 0.01, 0.05, 0.1, 0.5 and 1.0 mg/kg IV over 2 hours
  safety and tolerability: safe and well tolerated at all dose levels
[1]; healthy volunteers
  pharmacokinetic profile: favorable pharmacokinetic profile
[1]; single doses 0.01-1.0 mg/kg infused IV over 2 hours, healthy volunteers, plasma
  mean Cmax: 10 to 1275 ng/mL
Cells [2]
  amount needed in vitro for effective signaling of cells: 10 to 100 nM
Cells [3]
  amount needed for effective signaling, converted (1600 Da MW): 16 to 160 µg/L
